Measured values as given in patent US20230107983A1, “COMPOUND ISOLATED FROM TORILIDIS FRUCTUS, AND ANTICANCER PHARMACEUTICAL COMPOSITION CONTAINING SAME AS ACTIVE INGREDIENT” (PHARMA-GENE CO., LTD., priority 2020, published 2023).

How the values were obtained:
[1] = system: human lung cancer cells (A549); assay: Nude mouse xenograft model of human lung cancer cells, oral administration; assay type: in vivo; parameters: Tumor size increase (Vt—V0): unit not given here
Description: (§1) Anticancer activity against lung cancer according to the oral administration of Tr-9 was confirmed through a nude mouse xenograft model of human lung cancer cells (A549). Specific pathogen-free (SPF) nude mice of the BALB/C strain were used as the animal model. Animals were bred in the animal room of Daedeok Campus of Hannam University maintained at a temperature of 23±3° C., relative humidity of 55±15%, ventilation frequency of 10-20 times/hr, lighting time of 12 hours(lights on at 8 am and off at 8 pm) and illuminance of 150 to 300 Lux.
(§2) For cancer cell transplantation, all cells were collected and counted on the last day of culture, and the concentration of human lung cancer cell line A549 was adjusted to 5×10^6 cells/ml using PBS. The adjusted cell culture solution was injected subcutaneously into the auxiliary region between the right scapula and chest wall at 0.2 ml (1×10^6 cells/mouse) per mouse.
(§3) The Tr-9 was dissolved in sterile PBS and 1 mM Tr-9 200 µℓ was orally administered per mouse once a day, and all animals were weighed immediately before the start of drug (Tr-9) administration and 10 times in total from day 2 to day 23 after cancer cell transplantation (Table 1).
(§4) In Table 1 above, data values are the mean ± standard deviation. After measuring the body weight, the animals were killed using CO2 gas, and the tumor was separated and the size was measured in 3 directions using a vernier caliper for each animal. Then, the change in tumor size was expressed as a calculated value of (length × width × height)/2 (Table 2).
Tumor size increase is (Δt)= Vt—Vo, wherein Vt is the value of measuring the tumor size by date, and Vo is the value of measuring the initial tumor size.

[2] = system: human colorectal cancer cells (HCT116); assay: Nude mouse xenograft model of human colorectal cancer cells, intraperitoneal administration; assay type: in vivo
Description: Anticancer activity against colorectal cancer according to the intraperitoneal administration of Tr-9 was confirmed through a nude mouse xenograft model of human colorectal cancer cells (HCT116). In Example 5, Example 4 was repeated except for using colorectal cancer cells.
as §1, with “Specific” for “Anticancer activity against lung cancer according to the oral administration of Tr-9 was confirmed through a nude mouse xenograft model of human lung cancer cells (A549). Specific”
as §2, with “colorectal” for “lung”, “HCT116” for “A549”
(§5) The Tr-9 was dissolved in sterile PBS and 1 mM Tr-9 200 µℓ was intraperitoneally administered per mouse once a day, and all animals were weighed immediately before the start of drug (Tr-9) administration and 9 times in total from day 2 to day 21 after cancer cell transplantation (Table 7).
as §4, with “7” for “1”, “8).” for “2).”
Tumor size increase is (Δt)═ Vt—Vo, wherein Vt is the value of measuring the tumor size by date, and Vo is the value of measuring the initial tumor size.

[3] = Change in mouse weight, A549 xenograft, oral administration; assay type: in vivo, nude mouse; parameters: Change in mouse weight: unit not given here; details: once a day
Description: as §3, §4

[4] = Change in mouse weight, HCT116 xenograft, intraperitoneal administration; assay type: in vivo, nude mouse; parameters: Change in mouse weight: unit not given here; details: intraperitoneal once a day
Description: as §5
as §4, with “7” for “1”, “8).” for “2).”

SMILES: CC(=O)OC(C)(C)C1CC2=C(C)C(=O)CC2C(C)CC1OC(=O)CC(C)C (centres unmarked) [Tr-9]
- Tumor size increase (Vt—V0) ([1]; oral once a day, Day 0): 0.0±0.0
- Tumor size increase (Vt—V0) ([1]; oral once a day, Day 2): 5.4±1.4
- Inhibition rate (tumor size increase) ([1]; oral once a day, Day 2, vs control): 55.4%
- Tumor size increase (Vt—V0) ([1]; oral once a day, Day 5): 13.9±6.1
- Inhibition rate (tumor size increase) ([1]; oral once a day, Day 5, vs control): 31.5%
- Tumor size increase (Vt—V0) ([1]; oral once a day, Day 7): 24.0±14.5
- Inhibition rate (tumor size increase) ([1]; oral once a day, Day 7, vs control): 25.9%
- Tumor size increase (Vt—V0) ([1]; oral once a day, Day 9): 36.5±12.5
- Inhibition rate (tumor size increase) ([1]; oral once a day, Day 9, vs control): 31.3%
- Tumor size increase (Vt—V0) ([1]; oral once a day, Day 12): 67.8±25.4
- Inhibition rate (tumor size increase) ([1]; oral once a day, Day 12, vs control): 33.5%
- Tumor size increase (Vt—V0) ([1]; oral once a day, Day 14): 119.9±37.5
- Inhibition rate (tumor size increase) ([1]; oral once a day, Day 14, vs control): 34.1%
- Tumor size increase (Vt—V0) ([1]; oral once a day, Day 16): 183.4±85.6
- Inhibition rate (tumor size increase) ([1]; oral once a day, Day 16, vs control): 36.8%
- Tumor size increase (Vt—V0) ([1]; oral once a day, Day 19): 322.8±71.3
- Inhibition rate (tumor size increase) ([1]; oral once a day, Day 19, vs control): 39.0%
- Tumor size increase (Vt—V0) ([1]; oral once a day, Day 21): 448.0±131.2
- Inhibition rate (tumor size increase) ([1]; oral once a day, Day 21, vs control): 39.2%
- Tumor size increase (Vt—V0) ([1]; oral once a day, Day 23): 575.0±159.7
- Tumor weight at Day 23 ([1]; oral once a day, Day 23): 0.676 ± 0.185 g
- Inhibition rate (tumor size increase) ([1]; oral once a day, Day 23, vs control): 41.4%
- tumor size compared to the control group ([1]; oral, after day 19): statistically significantly smaller
- tumor size further reduced compared to the group intraperitoneally administered with the torilin ([2]; intraperitoneal): about 10%
- Tumor size increase (Vt−V0) ([2]; intraperitoneal once a day, Day 0, table title: Change in tumor size): 0.0±0.0
- Tumor size increase (Vt−V0) ([2]; intraperitoneal once a day, Day 2, table title: Change in tumor size): 53.1±17.9
- Inhibition rate (tumor size increase) ([2]; intraperitoneal once a day, Day 2, vs control): 19.8%
- Tumor size increase (Vt−V0) ([2]; intraperitoneal once a day, Day 5, table title: Change in tumor size): 139.4±40.3
- Inhibition rate (tumor size increase) ([2]; intraperitoneal once a day, Day 5, vs control): 22.9%
- Tumor size increase (Vt−V0) ([2]; intraperitoneal once a day, Day 7, table title: Change in tumor size): 312.6±71.9
- Inhibition rate (tumor size increase) ([2]; intraperitoneal once a day, Day 7, vs control): 30.1%
- Tumor size increase (Vt−V0) ([2]; intraperitoneal once a day, Day 9, table title: Change in tumor size): 453.9±112.5
- Inhibition rate (tumor size increase) ([2]; intraperitoneal once a day, Day 9, vs control): 35.1%
- Tumor size increase (Vt−V0) ([2]; intraperitoneal once a day, Day 11, table title: Change in tumor size): 648.7±112.0
- Inhibition rate (tumor size increase) ([2]; intraperitoneal once a day, Day 11, vs control): 37.0%
- Tumor size increase (Vt−V0) ([2]; intraperitoneal once a day, Day 14, table title: Change in tumor size): 849.8±110.2
- Inhibition rate (tumor size increase) ([2]; intraperitoneal once a day, Day 14, vs control): 38.3%
- Tumor size increase (Vt−V0) ([2]; intraperitoneal once a day, Day 16, table title: Change in tumor size): 1075.9±155.6
- Inhibition rate (tumor size increase) ([2]; intraperitoneal once a day, Day 16, vs control): 40.1%
- Tumor size increase (Vt−V0) ([2]; intraperitoneal once a day, Day 18, table title: Change in tumor size): 1326.9±216.2
- Inhibition rate (tumor size increase) ([2]; intraperitoneal once a day, Day 18, vs control): 35.2%
- Tumor weight at Day 21 ([2]; intraperitoneal once a day, Day 21): 2.48 ± 0.308 g
- Tumor size increase (Vt−V0) ([2]; intraperitoneal once a day, Day 21, table title: Change in tumor size): 1690.3±144.2
- Inhibition rate (tumor size increase) ([2]; intraperitoneal once a day, Day 21, vs control): 35.9%
- tumor size compared to the control group ([2]; intraperitoneal, after day 14): statistically significantly smaller
- Change in mouse weight ([3]; 0 Day after drug treatment): 100.0 ±0.0
- Change in mouse weight ([3]; 2 Days after drug treatment): 95.6 ±1.7
- Change in mouse weight ([3]; 5 Days after drug treatment): 96.9 ±1.8
- Change in mouse weight ([3]; 7 Days after drug treatment): 99.5 ±1.5
- Change in mouse weight ([3]; 9 Days after drug treatment): 102.3 ±2.8
- Change in mouse weight ([3]; 12 Days after drug treatment): 98.6 ±1.5
- Change in mouse weight ([3]; 14 Days after drug treatment): 100.7 ±3.6
- Change in mouse weight ([3]; 16 Days after drug treatment): 102.5 ±3.8
- Change in mouse weight ([3]; 19 Days after drug treatment): 103.6 ±5.5
- Change in mouse weight ([3]; 21 Days after drug treatment): 102.9 ±5.7
- Change in mouse weight ([3]; 23 Days after drug treatment): 104.7 ±5.6
- difference in body weight according to the administration of the drugs ([3]; day 2 to day 23): almost no difference in body weight
- Change in mouse weight ([4]; 0 Day after drug treatment): 100.0 ±0.0
- Change in mouse weight ([4]; 2 Days after drug treatment): 99.7 ±1.7
- Change in mouse weight ([4]; 5 Days after drug treatment): 100.5 ±3.2
- Change in mouse weight ([4]; 7 Days after drug treatment): 99.9 ±4.1
- Change in mouse weight ([4]; 9 Days after drug treatment): 99.8 ±4.9
- Change in mouse weight ([4]; 11 Days after drug treatment): 98.6 ±3.5
- Change in mouse weight ([4]; 14 Days after drug treatment): 99.7 ±4.5
- Change in mouse weight ([4]; 16 Days after drug treatment): 98.5 ±6.0
- Change in mouse weight ([4]; 18 Days after drug treatment): 100.4 ±5.5
- Change in mouse weight ([4]; 21 Days after drug treatment): 102.4 ±7.0
- difference in body weight according to the administration of the drugs ([4]; day 2 to day 21): almost no difference in body weight
